According to ChEMBL document CHEMBL1149373, “Computer-aided design of non-nucleoside inhibitors of HIV-1 reverse transcriptase” (Bioorg Med Chem Lett, 2006):

Tests used:
[1] = test system: Human immunodeficiency virus 1; assay: Antiviral activity against wild-type HIV1 in MT2 cells by MTT assay; type: functional, organism-based
[2] = test system: MT2; assay: Cytotoxicity against MT2 cells; type: functional; conditions: Homo sapiens
[3] = Human immunodeficiency virus 1, MT2, read-out: EC50

| Compound | EC50 [1] | CC50 [2] | EC50 [1, 3] |
| --- | --- | --- | --- |
| CC(C)=CCOc1cc(Nc2ccccn2)ccc1C#N | Not Active | 0.29 µM | – |
| CC(C)=CCOc1cc(Nc2nccc(N)n2)ccc1Cl | – | 0.5 µM | – |
| CC(C)=CCOc1cc(Nc2ncccn2)ccc1C#N | Not Active | < 0.2 µM | – |
| CCc1ccc(Nc2nccs2)cc1OCC=C(C)C | – | 31 µM | 5 µM |
| CC(C)=CCOc1cc(Nc2nccs2)ccc1C | – | 17 µM | 3 µM |
| CC(C)=CCOc1cc(Nc2nccc(C(F)(F)F)n2)ccc1Cl | – | 2.5 µM | 0.065 µM |
| CCCc1ccc(Nc2nccs2)cc1OCC=C(C)C | – | 23 µM | 23 µM |
| CC(C)=CCOc1cc(Nc2ccccn2)ccc1C | Not Active | 35 µM | – |
| CC(C)=CCOc1cc(Nc2nccs2)ccc1C(C)C | Not Active | 31 µM | – |
| CC(C)=CCOc1cc(Nc2ncccn2)ccc1Cl | – | 2.5 µM | – |
| CC(C)=CCOc1cccc(Nc2ncccn2)c1 | – | > 100 µM | 30 µM |
| CC(C)=CCOc1cc(Nc2ncccn2)ccc1C | – | 78 µM | 2.8 µM |
| CC(C)=CCOc1cc(Nc2nccs2)ccc1Cl | – | 26 µM | 0.3 µM |
| CC(C)=CCOc1cc(Nc2nccc(C)n2)ccc1Cl | Not Active | < 0.2 µM | – |
| CC(C)=CCOc1cccc(Nc2nccs2)c1 | – | 23 µM | 10 µM |
| COc1ccc(Nc2nccs2)cc1OCC=C(C)C | – | 42 µM | 3.8 µM |
| COc1ccnc(Nc2ccc(Cl)c(OCC=C(C)C)c2)n1 | – | 9 µM | – |
| CC(C)=CCOc1cc(Nc2nccs2)ccc1C#N | – | 0.5 µM | 0.21 µM |
| CC(C)=CCOc1cc(Nc2ccccn2)ccc1Cl | – | 15 µM | – |
| CSc1ccnc(Nc2ccc(Cl)c(OCC=C(C)C)c2)n1 | – | 2.8 µM | – |
| Cc1cc(C#N)cc(C)c1Oc1nc(Nc2ccc(C#N)cc2)nc(N)c1Br [ETRAVIRINE] | – | > 1 µM | < 0.002 µM |
| Cc1ccnc2c1NC(=O)c1cccnc1N2C1CC1 [NEVIRAPINE] | – | > 10 µM | – |
| Cc1cn([C@H]2C=C[C@@H](CO)O2)c(=O)[nH]c1=O [STAVUDINE] | – | > 100 µM | 3 µM |
| CC(C)=CCOc1cc(NC(=S)c2ccoc2C)ccc1Cl [UC 781] | – | > 100 µM | 0.002 µM |
